Data reported in US6525001B1, “Substituted pyrimidine and pyridine herbicides” (Mid-American Commercialization Corporation, priority 1997, dated 2003).

How the values were obtained:
Format in all cases: in vivo
soybean (Glycine max) = test: Test C
[1] = system: wild poinsettia (Euphorbia heterophylla); test: Test C; parameters: key: 0 was no effect; 100 was complete control
[2] = system: large crabgrass (Digitaria sanguinalis); test: Test E pre-/postemergence/post directed; parameters: key: 0 is no effect; 100 is complete control; details: PREEMERGENCE
Outline: (§1)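 Greenhouse pots; compound in non-phytotoxic solvent with surfactant, sprayed preemergence within one day of planting, postemergence at two to four leaf stage (three to twenty cm), or post directed to plant base and soil. Visual injury rated 13 to 21 days after application, 0 (none) to 100 (complete control).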

[3] = system: common groundsel (Senecio vulgaris); test: Test E pre-/postemergence/post directed; parameters: key: 0 is no effect; 100 is complete control; details: PREEMERGENCE
Outline: as §1

[4] = system: surinam grass (Brachiaria decumbens); test: Test E pre-/postemergence/post directed; parameters: key: 0 is no effect; 100 is complete control; details: PREEMERGENCE, Rate 250 g/ha
Outline: as §1

[5] = system: bermudagrass (Cynodon dactylon); test: Test E pre-/postemergence/post directed; parameters: key: 0 is no effect; 100 is complete control; details: PREEMERGENCE
Outline: as §1

[6] = system: sourgrass (Trichachne insularis); test: Test E pre-/postemergence/post directed; parameters: key: 0 is no effect; 100 is complete control
Outline: as §1

[7] = system: goosegrass (Eleusine indica); test: Test E pre-/postemergence/post directed; parameters: key: 0 is no effect; 100 is complete control
Outline: as §1

[8] = system: common ragweed (Ambrosia elatior); test: Test E pre-/postemergence/post directed; parameters: key: 0 is no effect; 100 is complete control; details: PREEMERGENCE
Outline: as §1

[9] = system: cocklebur (Xanthium strumarium); test: Test C; parameters: key: 0 was no effect; 100 was complete control
[10] = system: purple nutsedge (Cyperus rotundus); test: Test E pre-/postemergence/post directed; parameters: key: 0 is no injury; 100 is complete control
Outline: as §1

[11] = system: sandbur (Cenchrus echinatus); test: Test E pre-/postemergence/post directed; parameters: key: 0 is no injury; 100 is complete control
Outline: as §1

[12] = system: large crabgrass (Digitaria sanguinalis); test: Test E pre-/postemergence/post directed
Outline: as §1

[13] = system: alexandergrass (Brachiaria plantaginea); test: Test E pre-/postemergence/post directed
Outline: as §1

[14] = system: johnson grass (Sorghum halepense); test: Test E pre-/postemergence/post directed
Outline: as §1

[15] = system: bermudagrass (Cynodon dactylon); test: Test E pre-/postemergence/post directed
Outline: as §1

[16] = system: Spanishneedles (Bidens bipinnata); test: Test E pre-/postemergence/post directed
Outline: as §1

[17] = system: common ragweed (Ambrosia elatior); test: Test E pre-/postemergence/post directed
Outline: as §1

[18] = system: sandbur (Cenchrus echinatus); test: Test E pre-/postemergence/post directed; details: PREEMERGENCE
Outline: as §1

[19] = system: hairy beggarticks (Bidens pilosa); test: Test C

Cc1cnc(-c2ccc(C(F)(F)F)cc2)nc1Cn1ccc(C(F)(F)F)n1 [compound 9]
Plant response rating, Soybean (soybean (Glycine max); POSTEMERGENCE, Rate 35 g/ha): 40 | Plant response rating, Soybean (soybean (Glycine max); POSTEMERGENCE, Rate 70 g/ha): 50 | Plant response rating, Soybean (soybean (Glycine max); POSTEMERGENCE, Rate 140 g/ha): 50 | Plant response rating, Soybean (soybean (Glycine max); PREEMERGENCE, Rate 35 g/ha): 20 | Plant response rating, Soybean (soybean (Glycine max); PREEMERGENCE, Rate 70 g/ha): 20 | Plant response rating, Soybean (soybean (Glycine max); PREEMERGENCE, Rate 140 g/ha): 25 | Plant response rating, Wild poinsettia ([1]; POSTEMERGENCE, Rate 35 g/ha): 90 | Plant response rating, Wild poinsettia ([1]; POSTEMERGENCE, Rate 70 g/ha): 90 | Plant response rating, Wild poinsettia ([1]; POSTEMERGENCE, Rate 140 g/ha): 100 | Plant response rating, Wild poinsettia ([1]; PREEMERGENCE, Rate 35 g/ha): 10 | Plant response rating, Wild poinsettia ([1]; PREEMERGENCE, Rate 70 g/ha): 50 | Plant response rating, Wild poinsettia ([1]; PREEMERGENCE, Rate 140 g/ha): 50 | Plant response rating, Large crabgrass ([2]; Rate 64 g/ha): 100 | Plant response rating, Large crabgrass ([2]; Rate 125 g/ha): 100 | Plant response rating, Large crabgrass ([2]; Rate 250 g/ha): 100 | Plant response rating, Com. groundsel ([3]; Rate 64 g/ha): 100 | Plant response rating, Com. groundsel ([3]; Rate 125 g/ha): 100 | Plant response rating, Com. groundsel ([3]; Rate 250 g/ha): 100 | Plant response rating, Surinam grass [4]: 100 | Plant response rating, Bermudagrass ([5]; Rate 125 g/ha): 100 | Plant response rating, Bermudagrass ([5]; Rate 250 g/ha): 100 | Plant response rating, Sourgrass ([6]; POSTEMERGENCE, Rate 125 g/ha): 10 | Plant response rating, Sourgrass ([6]; POSTEMERGENCE, Rate 250 g/ha): 30 | Plant response rating, Sourgrass ([6]; PREEMERGENCE, Rate 32 g/ha): 85 | Plant response rating, Sourgrass ([6]; PREEMERGENCE, Rate 64 g/ha): 100 | Plant response rating, Sourgrass ([6]; PREEMERGENCE, Rate 125 g/ha): 100 | Plant response rating, Sourgrass ([6]; PREEMERGENCE, Rate 250 g/ha): 100 | Plant response rating, Goosegrass ([7]; POSTEMERGENCE, Rate 125 g/ha): 5 | Plant response rating, Goosegrass ([7]; POSTEMERGENCE, Rate 250 g/ha): 10 | Plant response rating, Goosegrass ([7]; PREEMERGENCE, Rate 32 g/ha): 90 | Plant response rating, Goosegrass ([7]; PREEMERGENCE, Rate 64 g/ha): 100 | Plant response rating, Goosegrass ([7]; PREEMERGENCE, Rate 125 g/ha): 100 | Plant response rating, Goosegrass ([7]; PREEMERGENCE, Rate 250 g/ha): 100 | Plant response rating, Com. ragweed ([8]; Rate 64 g/ha): 100 | Plant response rating, Com. ragweed ([8]; Rate 250 g/ha): 100 | Plant response rating, Cocklebur ([9]; POSTEMERGENCE, Rate 35 g/ha): 60 | Plant response rating, Cocklebur ([9]; POSTEMERGENCE, Rate 70 g/ha): 80 | Plant response rating, Cocklebur ([9]; POSTEMERGENCE, Rate 140 g/ha): 80 | Plant response rating, Cocklebur ([9]; PREEMERGENCE, Rate 35 g/ha): 0 | Plant response rating, Cocklebur ([9]; PREEMERGENCE, Rate 70 g/ha): 0 | Plant response rating, Cocklebur ([9]; PREEMERGENCE, Rate 140 g/ha): 0 | Plant response rating, Purple nutsedge ([10]; POSTEMERGENCE, Rate 125 g/ha): 0 | Plant response rating, Purple nutsedge ([10]; POSTEMERGENCE, Rate 250 g/ha): 0 | Plant response rating, Purple nutsedge ([10]; PREEMERGENCE, Rate 32 g/ha): 0 | Plant response rating, Purple nutsedge ([10]; PREEMERGENCE, Rate 64 g/ha): 0 | Plant response rating, Purple nutsedge ([10]; PREEMERGENCE, Rate 125 g/ha): 0 | Plant response rating, Purple nutsedge ([10]; PREEMERGENCE, Rate 250 g/ha): 0 | Plant response rating, Sandbur ([11]; POSTEMERGENCE, Rate 125 g/ha): 0 | Plant response rating, Sandbur ([11]; POSTEMERGENCE, Rate 250 g/ha): 0 | Plant response rating, Sandbur ([11]; PREEMERGENCE, Rate 32 g/ha): 0 | Plant response rating, Sandbur ([11]; PREEMERGENCE, Rate 64 g/ha): 0 | Plant response rating, Large crabgrass ([12]; POSTEMERGENCE, Rate 125 g/ha): 5 | Plant response rating, Large crabgrass ([12]; POSTEMERGENCE, Rate 250 g/ha): 10 | Plant response rating, Large crabgrass ([12]; PREEMERGENCE, Rate 32 g/ha): 70 | Plant response rating, Alexandergrass ([13]; POSTEMERGENCE, Rate 125 g/ha): 10 | Plant response rating, Alexandergrass ([13]; POSTEMERGENCE, Rate 250 g/ha): 10 | Plant response rating, Alexandergrass ([13]; PREEMERGENCE, Rate 32 g/ha): 30 | Plant response rating, Alexandergrass ([13]; PREEMERGENCE, Rate 64 g/ha): 65 | Plant response rating, Alexandergrass ([13]; PREEMERGENCE, Rate 125 g/ha): 65 | Plant response rating, Johnsongrass ([14]; POSTEMERGENCE, Rate 125 g/ha): 85 | Plant response rating, Johnsongrass ([14]; POSTEMERGENCE, Rate 250 g/ha): 85 | Plant response rating, Johnsongrass ([14]; PREEMERGENCE, Rate 32 g/ha): 55 | Plant response rating, Johnsongrass ([14]; PREEMERGENCE, Rate 64 g/ha): 75 | Plant response rating, Johnsongrass ([14]; PREEMERGENCE, Rate 125 g/ha): 85 | Plant response rating, Johnsongrass ([14]; PREEMERGENCE, Rate 250 g/ha): 90 | Plant response rating, Bermudagrass ([15]; POSTEMERGENCE, Rate 125 g/ha): 10 | Plant response rating, Bermudagrass ([15]; POSTEMERGENCE, Rate 250 g/ha): 10 | Plant response rating, Bermudagrass ([15]; PREEMERGENCE, Rate 32 g/ha): 70 | Plant response rating, Bermudagrass ([15]; PREEMERGENCE, Rate 64 g/ha): 98 | Plant response rating, Spanishneedles ([16]; POSTEMERGENCE, Rate 125 g/ha): 10 | Plant response rating, Spanishneedles ([16]; POSTEMERGENCE, Rate 250 g/ha): 15 | Plant response rating, Spanishneedles ([16]; PREEMERGENCE, Rate 64 g/ha): 20 | Plant response rating, Spanishneedles ([16]; PREEMERGENCE, Rate 125 g/ha): 30 | Plant response rating, Spanishneedles ([16]; PREEMERGENCE, Rate 250 g/ha): 60 | Plant response rating, Com. ragweed ([17]; POSTEMERGENCE, Rate 125 g/ha): 10 | Plant response rating, Com. ragweed ([17]; POSTEMERGENCE, Rate 250 g/ha): 10 | Plant response rating, Com. ragweed ([17]; PREEMERGENCE, Rate 32 g/ha): 10 | Plant response rating, Com. ragweed ([17]; PREEMERGENCE, Rate 125 g/ha): 98 | Plant response rating, Sandbur ([18]; Rate 125 g/ha): 10 | Plant response rating, Sandbur ([18]; Rate 250 g/ha): 20 | Plant response rating, H. beggarticks ([19]; POSTEMERGENCE, Rate 35 g/ha): 65 | Plant response rating, H. beggarticks ([19]; POSTEMERGENCE, Rate 70 g/ha): 70 | Plant response rating, H. beggarticks ([19]; POSTEMERGENCE, Rate 140 g/ha): 80 | Plant response rating, H. beggarticks ([19]; PREEMERGENCE, Rate 35 g/ha): 85 | Plant response rating, H. beggarticks ([19]; PREEMERGENCE, Rate 70 g/ha): 85 | Plant response rating, H. beggarticks ([19]; PREEMERGENCE, Rate 140 g/ha): 85
